Where two headings read alike, the source gives them in different places.
Key:
[1] = tested on: CYP3A; details: human hepatocytes; cited from earlier work
[2] = tested on: CYP3A; details: rats; cited from earlier work
[3] = tested on: HDL-cholesterol; assay: Serum HDL-cholesterol level after feeding of the compound over 8 days; type: in vivo; details: feeding over 8 days, rats; in words
From the text: FIG. 2 represents a fold increase of HDL-cholesterol per compound;
We have invented a family of related compounds which cause a significant pharmacological elevation of serum high density lipoprotein (HDL-cholesterol) concentration from 20% to greater than 200%. […] The effect on HDL cholesterol was paralleled by an elevation in the level of apoprotein A1 (a protein component of HDL) and by elevation of apo A1 messenger RNA in treated animals.
The effect of CYP3A inducers on levels of HDL-cholesterol was determined by administration of the compound by feeding over 8 days followed by sacrifice of the animal and determination of HDL-cholesterol levels. The effects of benzylimidazole (IV), clotrimazole, the five high magnitude CYP3A inducers and four compounds showing intermediate CYP3A inducing activity were evaluated. […] The significant linear correlation between the increase in HDL-cholesterol and the increase in ethosuximide clearance is shown in FIG. 3, and supports the belief that the activities are related.

[4] = tested on: HDL2; assay: HDL2/total cholesterol ratio after administration over several days; type: in vivo; details: pretreated rats; in words
Description: (§1) A correlation between induction of CYP3A and an increase in serum HDL-cholesterol was supported by our early experiments in which selective CYP3A inducers (Clotrimazole, dexamethasone) were administered to rats over a period of several days, and the effect on liver/body weight ratios and on HDL-cholesterol/total cholesterol ratios determined. […] A positive relationship between cytochrome P450 induction and improvement of serum lipid levels was also found.

[5] = Liver/body weight ratio after administration over several days; type: in vivo; details: rats, indirect sign of increased cytochrome P450 content
Description: as §1

[6] = tested on: CYP3A; assay: CYP3A induction measured as increase in rate of ethosuximide clearance after 8-day pretreatment; type: in vivo, rats; details: for CYP3A activity induced compared with clotrimazole (Compound (III)): measured by ethosuximide clearance, in words; for increase in ethosuximide clearance: 8-day pretreatment, rats
Description: FIG. 1 represents a fold increase in ethosuxinide clearances following an 8-day pretreatment schedule of the azoles;
Using clotrimazole (Compound (III)) as a lead compound, the effect of structure on the ability of a compound to induce CYP3A activity was determined, as measured by the test compound's ability to increase the rate of ethosuximide clearance. Over 40 structural modifications of clotrimazole were tested and significant differences in the ability to induce CYP3A activity was observed.
Analysis of the effect of substitution on the ability of a compound to induce CYP3A activity enables us to propose requirements for the induction in vivo. First, a heteroaromatic nucleus containing basic nitrogen must be present. Significant activity (i.e. >2 fold increase in ethosuximide clearance) is achieved only using substituted imidazoles, 2-methylimidazole (XIV), or in one case, pyridine (XVI). […] A variety of substituents were introduced into a single aryl ring of triphenylmethylimidazole. Most of the monosubstituted 1-triphenylmethylimidazoles produced inducing activity lower than that measured for the unsubstituted member of the series, regardless of the nature of the substituent. High magnitude CYP3A induction (i.e. >3-fold increase in ethosuximide clearance was found in only four substituted triphenylmethyl imidazoles: (XXXI)(meta-chloro). (XXXIII)(para chloro), (XXXVIII)(metafluoro).

[7] = tested on: HDL cholesterol; details: prospective experiments; cited from earlier work
[8] = tested on: HDL-cholesterol; details: epileptic subjects vs matched patients without epilepsy; phenobarbital and/or phenytoin; cited from earlier work
[9] = tested on: apoA1; details: rats; cited from earlier work
[10] = tested on: HDL-cholesterol; details: rats; cited from earlier work
[11] = tested on: cytochromes P450; details: cited from earlier work

Clc1ccccc1C(c1ccccc1)(c1ccccc1)n1ccnc1 [III]
inducer of CYP3A [1]: relatively selective inducer
inducer of CYP3A [2]: relatively selective inducer
effect on HDL-cholesterol [3]: significant effect on HDL-cholesterol
HDL2/total cholesterol ratio [4]: noteworthy improvement in HDL2/total cholesterol ratios
liver/body weight ratio [5]: markedly increased liver/body weight ratios

c1ccc(C(c2ccccc2)(c2ccccc2)n2ccnc2)cc1 [V, 1-triphenylmethylimidazole]
CYP3A activity induced compared with clotrimazole (Compound (III)) [6]: significantly more CYP3A activity than did the lead compound

c1ccc(C(c2ccccc2)n2ccnc2)cc1 [XIII, 1-diphenylmethylimidazole]
CYP3A inducing activity ([6]; structure-activity statement in words, ethosuximide clearance): progressively lost

Cc1nccn1C(c1ccccc1)(c1ccccc1)c1ccccc1 [XIV]
increase in ethosuximide clearance [6]: > 2 fold

c1ccc(Cc2ccncc2)cc1 [XVI]
increase in ethosuximide clearance [6]: > 2 fold

Clc1ccc(C(c2ccccc2)(c2ccccc2)n2ccnc2)cc1 [XXXIII]
increase in ethosuximide clearance [6]: > 3 fold
CYP3A activity induced compared with clotrimazole (Compound (III)) [6]: significantly more CYP3A activity than did the lead compound

Fc1ccc(C(c2ccccc2)(c2ccccc2)n2ccnc2)cc1 [XXXIX]
CYP3A activity induced compared with clotrimazole (Compound (III)) [6]: significantly more CYP3A activity than did the lead compound

Clc1cccc(C(c2ccccc2)(c2ccccc2)n2ccnc2)c1 [XXXI]
increase in ethosuximide clearance [6]: > 3 fold
CYP3A activity induced compared with clotrimazole (Compound (III)) [6]: significantly more CYP3A activity than did the lead compound

Fc1cccc(C(c2ccccc2)(c2ccccc2)n2ccnc2)c1 [XXXVIII]
increase in ethosuximide clearance [6]: > 3 fold
CYP3A activity induced compared with clotrimazole (Compound (III)) [6]: significantly more CYP3A activity than did the lead compound

C[C@@H]1C[C@H]2[C@@H]3CCC4=CC(=O)C=C[C@]4(C)[C@@]3(F)[C@@H](O)C[C@]2(C)[C@@]1(O)C(=O)CO [dexamethasone]
HDL2/total cholesterol ratio [4]: noteworthy improvement in HDL2/total cholesterol ratios
liver/body weight ratio [5]: markedly increased liver/body weight ratios

CCC1(c2ccccc2)C(=O)NC(=O)NC1=O [phenobarbital]
total serum HDL cholesterol/total cholesterol ratio [7]: increases in total serum HDL cholesterol/total cholesterol ratios
levels of HDL-cholesterol [8]: higher levels of HDL-cholesterol
apoA1 [9]: increase HDL-cholesterol and apoA1 in rats
HDL-cholesterol [10]: increase HDL-cholesterol
inducer of the cytochromes P450 [11]: known to be an inducer of the cytochromes P450

O=C1NC(=O)C(c2ccccc2)(c2ccccc2)N1 [phenytoin]
levels of HDL-cholesterol [8]: higher levels of HDL-cholesterol

Reference: patent US6103733A, “Method for increasing HDL cholesterol levels using heteroaromatic phenylmethanes” (priority 1998, dated 2000)
